In patent EP2805705B1, “Packaging with one or more administration units comprising a sodium salt of (R)-3-[6-amino-pyridin-3-yl]-2-(1-cyclohexyl-1 H-imidazol-4-yl)-propionic acid” (IP Gesellschaft für Management mbH, priority 2013, dated 2014):

What was measured:
Format in all cases: physicochemical
[1] = Dynamic vapor sorption (DVS), SPS11-10µ, one cycle at 25 °C; details: DVS isotherm at 25 °C
Description: (§1) Example 7: Dynamic vapor sorption (DVS) of (R)-3-[6-amino-pyridin-3-yl]-2-(1-cyclohexyl-1 H-imidazol-4-yl)-propionic acid sodium salt monohydrate: Moisture sorption/desorption isotherms were recorded on a SPS11-10µ from Projekt Messtechnik (Ulm, Germany). One cycle was run at 25 °C, in which the sample was first stepwise decreased to 0% RH and then the relative humidity was stepwise increased from 0 to 95% and the weight of the sample was measured. Typical total measurement times for both cycles were about 20 to 30 hours. The measured data for the (R)-3-[6-amino-pyridin-3-yl]-2-(1-cyclohexyl-1 H-imidazol-4-yl)-propionic acid sodium salt monohydrate as prepared in Examples 2 or 3 are shown in the following table: DVS Isotherm at 25 °C:
(§2) Example 12: DVS, Comparison Experiment: (R)-3-[6-amino-pyridin-3-yl]-2-(1-cyclohexyl-1 H-imidazol-4-yl)-propionic acid as prepared in Example 1 was used for the measurement. The measurement was performed as disclosed in Example 7 with (R)-3-[6-amino-pyridin-3-yl]-2-(1-cyclohexyl-1 H-imidazol-4-yl)-propionic acid (free acid, amorphous) and the received data are shown in the following table: DVS Isotherm at 25 °C
as §1, with “(DVS):” for “(DVS) of (R)-3-[6-amino-pyridin-3-yl]-2-(1-cyclohexyl-1 H-imidazol-4-yl)-propionic acid sodium salt monohydrate:”, “Room humidity (RH)” for “RH”, “dihydrate” for “monohydrate”, “Example” for “Examples 2 or”, “isotherm” for “Isotherm”, “25°C:” for “25 °C:”
as §2, with “9:” for “12:”

[2] = Chiral stability on storage as a solid at 40 °C and 75 % RH (chiral HPLC)
Description: Example 8: Chiral stability: Representative samples of the crystalline sodium salt of (R)-3-[6-amino-pyridin-3-yl]-2-(1-cyclohexyl-1 H-imidazol-4-yl)-propionic acid sodium salt dihydrate as prepared in Example 3 were stored as a solid under the conditions (A) and (B): (A) 40 °C and 75 % RH 2 weeks; (B) 40 °C and 75 % RH 4 weeks: Results are shown in the following table:
Under the storage conditions the samples remain stable. […] The purity was determined by chiral HPLC on a HPLC system containing a Quaternary HPLC pump (e.g. HP 1100), an auto sampler, an UV absorbance detector (e.g. DAD Agilent Technologies or other adequate HPLC-System) and a computer data acquisition system with suitable software (e.g. Dionex-Chromeleon). A Zorbax SB_CN (4.6 x 100 mm, 3.5 µlτ ? ), column was used as stationary phase and two mobile phases A (975 mL water, 25 mL methanol, 1 mL perchloric acid) and B (975 mL methanol, 25 mL water) were used as mobile phases. The flow rate was set to a value of 1.0 mL/minute and the oven temperature was set to 15°C. Detection was performed by absorbance of the compounds at 236 nm (UV) (bandwidth: 4 nm) and reference wavelength was set to 450 nm (bandwidth: 50 nm). Typical total run times were in the range of about 10 minutes. For sample preparation 20 mg of the substance were accurately weighed into a 10 ml volumetric flask and dissolved and diluted to volume with solvent (acetonitrile/water 90:10 VN). Afterwards 1 ml of this solution was transferred to a 10 mL volumetric flask and then diluted to volume with water. For the HPLC analysis 5 µl of the sample were injected into the system. Gradient used: 0 min (time elapsed) 0% mobile phase B, 1 min 0% mobile phase B, 4 min 53% mobile phase B, 6 min 95% mobile phase B, 7 min 95% mobile phase B, 7.5 min 0% mobile phase B and after 10 min 0% mobile phase B. Enanatiomeric excess was determined by chiral HPLC on a HPLC system containing a Quaternary HPLC pump (e.g. HP 1100), an auto sampler, an UV absorbance detector (e.g. DAD Agilent Technologies or other adequate HPLC-System) and a computer data acquisition system with suitable software (e.g. Dionex-Chromeleon). A Chirobiotic R, Supelco (Astec) (4.6 x 250mm; 5µηη) column was used as stationary phase and a solution of 800 mL water, 1200 mL acetonitrile and 1.0 g ammoniumacetate was used as mobile phase. The flow rate was set to a value of 1.5 mL/minute and the oven temperature was set to 45°C. Detection was performed by absorbance of the compounds at 236 nm (UV) (bandwidth: 8 nm) and reference wavelength was set to 450 nm (bandwidth: 50 nm). Typical total run times were in the range of about 15 minutes. For sample preparation 50 mg of the substance were accurately weighed into a 10 mL volumetric flask and dissolved and diluted to volume with solvent (acetonitrile/water 50:50). For the HPLC analysis 5 µí of the sample were injected into the system. Gradient used: Isograt (15 minutes 100% mobile phase A).
Example 10: Chiral stability; Comparison Experiment: (R)-3-[6-amino-pyridin-3-yl]-2-(1-cyclohexyl-1 H-imidazol-4-yl)-propionic acid as prepared in Example 1 was used for the measurement. Representative samples of the compound (R)-3-[6-amino-pyridin-3-yl]-2-(1-cyclohexyl-1 H-imidazol-4-yl)-propionic acid as prepared in Example 1 were stored as a solid under the conditions (A) and (B) as defined in Example 8.

[3] = Dynamic vapor sorption (DVS), DVS-1 instrument, two cycles at 25 °C; details: for weight increase in the sorption step: 25 °C
[4] = Determination of solubility in a mixture of acetone and water (4:1, by volume); details: for Solubility [g in 100 g of solvent]: acetone and water (4:1, by volume); for solubility compared with polymorph 1: result in words
Description: Determination of solubility: For the determination of the solubility in a mixture of acetone and water (4:1, by volume), samples of 0.5 mg to 50 mg of the test substances were suspended in a defined amount of the solvent (800 mg to 1200 mg) in screw cap vials with a magnetic stirring bar, which were placed in a temperature-controlled multiple stirring device equipped for transmission measurement (Avantium Crystal 16). With stirring at 700 rpm, the vials were cooled from room temperature to 0 °C and then heated to 60 °C with a heating rate of 3 °C/h, kept at 60 °C for 2 h and cooled again to 0 °C with a cooling rate of 3 °C/h. By means of transmission measurement it was determined whether the sample was dissolved (100 % transmission), or crystals were present. For polymorph 1 ({drug5b}), polymorph 2 ({drug5c}), hydrate 1 ({drug5e}) and hydrate 2 ({drug5f}) of compound (V) the following solubilities in a mixture of acetone and water (4:1, by volume) were determined.

Nc1ccc(C[C@@H](C(=O)O)c2cn(C3CCCCC3)cn2)cn1 [(R)-3-[6-amino-pyridin-3-yl]-2-(1-cyclohexyl-1 H-imidazol-4-yl)-propionic acid]
Change In Mass (%) Desorption ([1]; Target RH 0.4 %): -1.6%
Change In Mass (%) Sorption ([1]; Target RH 10.0 %): -0.5%
Change In Mass (%) Desorption ([1]; Target RH 10.1 %): 0.3%
Change In Mass (%) Desorption ([1]; Target RH 20.0 %): 1.1%
Change In Mass (%) Sorption ([1]; Target RH 20.0 %): 0.5%
Change In Mass (%) Sorption ([1]; Target RH 30.0 %): 1.9%
Change In Mass (%) Desorption ([1]; Target RH 30.1 %): 1.7%
Change In Mass (%) Sorption ([1]; Target RH 40.1 %): 3.9%
Change In Mass (%) Sorption ([1]; Target RH 50.0 %): 6.6%
Change In Mass (%) Sorption ([1]; Target RH 60.1 %): 9.6%
Change In Mass (%) Sorption ([1]; Target RH 70.0 %): 13.4%
Change In Mass (%) Sorption ([1]; Target RH 75.0 %): 15.0%
Change In Mass (%) Sorption ([1]; Target RH 80.1 %): 16.9%
Change In Mass (%) Sorption ([1]; Target RH 85.1 %): 20.1%
Change In Mass (%) Sorption ([1]; Target RH 89.9 %): 25.1%
Change In Mass (%) Sorption ([1]; Target RH 95.0 %): 32.3%
Enantiomeric excess ([2]; Storage condition (A) 40 °C and 75 % RH 2 weeks, stored as a solid): 94.9%
Enantiomeric excess ([2]; at the beginning): 98.2%

CNc1nccc(-c2cc3cc(C(=O)N[C@@H](CN(c4ccccc4)c4ncccn4)C(N)=O)ccc3[nH]2)n1 [Polymorph 2, 2-(2-methylamino-pyrimidin-4-yl)-1 H-indole-5-carboxylic acid [(S)-1-carbamoyl-2-(phenyl-pyrimidin-2-yl-amino)-ethyl]-amide]
weight increase in the sorption step ([3]; Relative humidity 40 %, first cycle): 0.2%
weight increase in the sorption step ([3]; Relative humidity 40 %, second cycle): 0.0%
weight increase in the sorption step ([3]; Relative humidity 60 %, first cycle): 0.3%
weight increase in the sorption step ([3]; Relative humidity 60 %, second cycle): 0.1%
weight increase in the sorption step ([3]; Relative humidity 80 %, first cycle): 0.4%
weight increase in the sorption step ([3]; Relative humidity 80 %, second cycle): 0.3%
weight increase in the sorption step ([3]; Relative humidity 95 %, first cycle): 0.8%
weight increase in the sorption step ([3]; Relative humidity 95 %, second cycle): 0.6%
water uptake (hygroscopicity) ([3]; at a high relative humidity of 80 %): about 0.4%
Solubility [g in 100 g of solvent] ([4]; Temperature 46.0 °C): 1.02 g in 100 g of solvent
Solubility [g in 100 g of solvent] ([4]; Temperature 57.5 °C): 2.48 g in 100 g of solvent
solubility compared with polymorph 1 [4]: higher solubility than polymorph 1

Nc1ccc(C[C@@H](C(=O)[O-])c2cn(C3CCCCC3)cn2)cn1.O.[Na+] [(R)-3-[6-amino-pyridin-3-yl]-2-(1-cyclohexyl-1 H-imidazol-4-yl)-propionic acid sodium salt monohydrate]
Change In Mass (%) Desorption ([1]; Target RH 0.2 %): -4.4%
Change In Mass (%) Desorption ([1]; Target RH 10.0 %): -0.6%
Change In Mass (%) Sorption ([1]; Target RH 10.0 %): -3.7%
Change In Mass (%) Desorption ([1]; Target RH 20.0 %): -0.1%
Change In Mass (%) Sorption ([1]; Target RH 20.0 %): -0.2%
Change In Mass (%) Sorption ([1]; Target RH 30.0 %): 0.2%
Change In Mass (%) Desorption ([1]; Target RH 30.1 %): 0.1%
Change In Mass (%) Sorption ([1]; Target RH 40.0 %): 0.6%
Change In Mass (%) Sorption ([1]; Target RH 50.0 %): 0.9%
Change In Mass (%) Sorption ([1]; Target RH 60.0 %): 1.5%
Change In Mass (%) Sorption ([1]; Target RH 70.0 %): 4.0%
Change In Mass (%) Sorption ([1]; Target RH 75.0 %): 8.2%
Change In Mass (%) Sorption ([1]; Target RH 80.1 %): 11.9%
Change In Mass (%) Sorption ([1]; Target RH 85.1 %): 17.7%
Change In Mass (%) Sorption ([1]; Target RH 90.0 %): 38.2%
Change In Mass (%) Sorption ([1]; Target RH 94.9 %): 67.4%

CNc1nccc(-c2cc3cc(C(=O)N[C@@H](CN(c4ccccc4)c4ncccn4)C(N)=O)ccc3[nH]2)n1.O.O.O.O.O.O [Hydrate 2, 2-(2-methylamino-pyrimidin-4-yl)-1 H-indole-5-carboxylic acid [(S)-1-carbamoyl-2-(phenyl-pyrimidin-2-yl-amino)-ethyl]-amide hexahydrate]
Solubility [g in 100 g of solvent] ([4]; Temperature 36.8 °C): 0.50 g in 100 g of solvent
Solubility [g in 100 g of solvent] ([4]; Temperature 46.1 °C): 1.02 g in 100 g of solvent
Solubility [g in 100 g of solvent] ([4]; Temperature 55.9 °C): 2.61 g in 100 g of solvent
solubility compared with polymorph 1 [4]: higher solubility than polymorph 1

CNc1nccc(-c2cc3cc(C(=O)N[C@@H](CN(c4ccccc4)c4ncccn4)C(N)=O)ccc3[nH]2)n1.O.O [Hydrate 1, 2-(2-methylamino-pyrimidin-4-yl)-1 H-indole-5-carboxylic acid [(S)-1-carbamoyl-2-(phenyl-pyrimidin-2-yl-amino)-ethyl]-amide dihydrate]
hygroscopicity ([3]; result in words): low hygroscopicity
Solubility [g in 100 g of solvent] ([4]; Temperature 38.6 °C): 2.11 g in 100 g of solvent
Solubility [g in 100 g of solvent] ([4]; Temperature 49.7 °C): 3.39 g in 100 g of solvent
Solubility [g in 100 g of solvent] ([4]; Temperature 57.4 °C): 5.04 g in 100 g of solvent
solubility compared with polymorph 1 [4]: higher solubility than polymorph 1
